Literature values, collected in patent US5360612A, “Pharmaceutical compositions containing triazole derivatives for rectal administration” (Pfizer Inc., priority 1992, dated 1994).

Conditions: in vivo

For `CN[C@@H](C)[C@H](O)c1ccccc1` [ephedrine], the “bioavailability from suppository fatty bases” value is given as “do not show good bioavailability”.
